# How the values were obtained:
# [1] = test system: mutant dystonic hamster; assay: Mutant dystonic hamster, scoring of dystonic attacks; format: in vivo; settings: scoring system
# Description: A typical animal model is the mutant dystonic hamster according to A. Richter and W. Löscher, Prog. Neurobiol. 1998; 54: 633-677. In this genetically dystonic hamsters, dystonic attacks are provoked by taking the animal from the home cage and placing it on a balance. The dystonic syndrome consists of a sequence of abnormal movements, and the severity of the single symptoms is rated by a scoring system.
# [2] = test system: Pietrain pig; assay: Campus Syndrome in the Pietrain pig, tremor; format: in vivo; settings: when standing and during locomotion
# Description: Typical genetic models in mutant animals are the Campus Syndrome in the Pietrain pig according to A. Richter et al. (Exp. Neurology, 1995; 134: 205-213) or the Weaver mutant mouse according to J. R. Simon and B. Ghetti (Mol. Neurobiol., 1994; 9: 183-189). In the Campus Syndrome model, these mutant pigs show a high-frequency tremor when standing and during locomotion, but not while lying at rest. Assessment of tremor is made by accelerometric recording. In the Weaver mutant mouse, degenerative cerebellar atrophy is found in association with tremor, gait instability, and toppling over the sides after a few steps.
# [3] = test system: rats with posthypoxic myoclonus; assay: Posthypoxic myoclonus in rats after cardiac arrest; format: in vivo, rat; settings: after 8 minutes cardiac arrest
# Procedure: A typical animal model for myoclonus is myoclonus induced by an acute hypoxic episode according to D. D. Truong et al., Mov. Dsiord., 1994; 9: 201-206). In this model of posthypoxic myoclonus, rats undergo a cardiac arrest for 8 minutes and are resuscitated thereafter. Myoclonic jerks occur spontaneously but can be provoked by auditory stimulation, too, worsening over the days following cardiac arrest.
# [4] = test system: rat with nigrostriatal degeneration; assay: Striatonigral degeneration in the rat (6-hydroxydopamine plus quinolinic acid), turning behavior; format: in vivo; settings: automated recorder
# Description: Another more recent animal model is the striatonigral degeneration approach in the rat according to G. K. Wenning et al., J. Neural Transm. Suppl., 1999; 55: 103-113. Rats receive an unilateral injection of 6-hydroxydopamine into the left medial forebrain bundle followed by an injection of quinolinic acid into the ipsilateral striatum inducing nigrostriatal degeneration. The degeneration results in turning behavior to a challenge with dopaminomimetics such as apomorphine or amphetamine. Turning behavior is measured by an automated recorder.
# [5] = test system: cataleptic rat; assay: Reversal of catalepsy in rats (oral ED50); format: in vivo; settings: result in words
# Procedure: Extrapyramidal motor side effects in e.g. rodents are measured by the ability of a drug to induce catalepsy. Catalepsy is defined as a state where an animal continues to remain in an unnormal (nonphysiological ‘uncomfortable’) posture for a long time (e.g.: M. E. Stanley and S. D. Glick, Neuropharmacology, 1996; 15: 393-394; C. J. E. Niemegeers and P. Janssen, Life Sci., 1979, […]). For example, if a hindpaw of a rat is placed on an elevated level, e.g. a platform elevated 3 cm above ground level, a normal rat immediately withdraws the hindpaw from the platform to the ground level. A cataleptic rat remains in this unnatural posture even for minutes.
smiles,measurement,setting,value
"O=C1c2ccccc2S(=O)(=O)N1CCCCNC[C@H]1CCc2ccccc2O1 [(−)-(R)-2-{4-[[3,4-dihydro-2H-benzopyran-2-yl)-methyl]amino]butyl}-1,2-benzoisothiazol-3-(2H)-on-1,1-dioxide]",severity of dystonic symptoms,[1],dose-dependently reduced
same,Campus Syndrome tremor,[2],reduced disabling tremor when standing and during locomotion
same,number of auditory-evoked myoclonic jerks,[3],dose-dependently reduce
same,number of spontaneous myoclonic jerks,[3],dose-dependently reduce
same,turning behavior induced by amphetamine,[4],dose-dependently antagonized
same,turning behavior induced by apomorphine,[4],dose-dependently antagonized
same,potency in reversing catalepsy,[5],extraordinary potency in reversing catalepsy

# Source: patent US20040235920A1, “Novel use of substituted aminomethyl chromans for the treatment of movement disorders and of adverse effects induced by drugs administered to treat extrapyramidal movement disorders” (priority 2001, published 2004)
